Ki data for two compounds are collected here from BindingDB's records for doi:10.1124/jpet.103.062794 (Neurosearch, 2004).

SMILES strings stand for the structures. Where “and” joins values, the source holds several entries; their conditions need not be identical. Equal entries are not always repeated. Where only a bound is given, the exact number is not on record here.

Test [1] has as its target Glutamate receptor ionotropic, kainate 1 (Homo sapiens, UniProt P39086).
In test [2] the target is Glutamate receptor ionotropic, kainate 2 (Homo sapiens, UniProt Q13002).
Chain of Glutamate receptor ionotropic, kainate 2 (Q13002 whole entry): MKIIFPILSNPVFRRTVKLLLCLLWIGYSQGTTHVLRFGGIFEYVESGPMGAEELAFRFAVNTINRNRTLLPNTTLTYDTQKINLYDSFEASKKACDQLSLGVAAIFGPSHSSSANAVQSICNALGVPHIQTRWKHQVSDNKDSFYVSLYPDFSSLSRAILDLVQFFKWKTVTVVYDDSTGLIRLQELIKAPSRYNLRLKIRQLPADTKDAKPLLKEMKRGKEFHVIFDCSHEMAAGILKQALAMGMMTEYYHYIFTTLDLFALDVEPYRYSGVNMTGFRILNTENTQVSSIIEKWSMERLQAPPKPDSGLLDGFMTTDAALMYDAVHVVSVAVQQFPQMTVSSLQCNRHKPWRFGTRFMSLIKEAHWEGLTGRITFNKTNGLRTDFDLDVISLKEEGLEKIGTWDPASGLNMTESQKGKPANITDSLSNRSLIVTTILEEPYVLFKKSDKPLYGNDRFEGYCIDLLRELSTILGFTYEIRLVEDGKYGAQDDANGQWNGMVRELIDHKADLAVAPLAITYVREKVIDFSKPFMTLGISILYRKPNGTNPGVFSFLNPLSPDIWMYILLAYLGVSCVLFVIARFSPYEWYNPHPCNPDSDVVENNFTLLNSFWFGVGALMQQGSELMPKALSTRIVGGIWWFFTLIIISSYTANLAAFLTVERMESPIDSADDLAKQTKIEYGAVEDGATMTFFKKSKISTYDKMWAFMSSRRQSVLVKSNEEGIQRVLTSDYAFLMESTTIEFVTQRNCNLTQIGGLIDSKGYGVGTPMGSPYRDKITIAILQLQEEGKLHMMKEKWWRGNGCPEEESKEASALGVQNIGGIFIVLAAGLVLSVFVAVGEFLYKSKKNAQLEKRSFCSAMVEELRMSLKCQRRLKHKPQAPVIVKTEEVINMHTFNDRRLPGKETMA

Chain of Glutamate receptor ionotropic, kainate 1 (P39086 whole entry): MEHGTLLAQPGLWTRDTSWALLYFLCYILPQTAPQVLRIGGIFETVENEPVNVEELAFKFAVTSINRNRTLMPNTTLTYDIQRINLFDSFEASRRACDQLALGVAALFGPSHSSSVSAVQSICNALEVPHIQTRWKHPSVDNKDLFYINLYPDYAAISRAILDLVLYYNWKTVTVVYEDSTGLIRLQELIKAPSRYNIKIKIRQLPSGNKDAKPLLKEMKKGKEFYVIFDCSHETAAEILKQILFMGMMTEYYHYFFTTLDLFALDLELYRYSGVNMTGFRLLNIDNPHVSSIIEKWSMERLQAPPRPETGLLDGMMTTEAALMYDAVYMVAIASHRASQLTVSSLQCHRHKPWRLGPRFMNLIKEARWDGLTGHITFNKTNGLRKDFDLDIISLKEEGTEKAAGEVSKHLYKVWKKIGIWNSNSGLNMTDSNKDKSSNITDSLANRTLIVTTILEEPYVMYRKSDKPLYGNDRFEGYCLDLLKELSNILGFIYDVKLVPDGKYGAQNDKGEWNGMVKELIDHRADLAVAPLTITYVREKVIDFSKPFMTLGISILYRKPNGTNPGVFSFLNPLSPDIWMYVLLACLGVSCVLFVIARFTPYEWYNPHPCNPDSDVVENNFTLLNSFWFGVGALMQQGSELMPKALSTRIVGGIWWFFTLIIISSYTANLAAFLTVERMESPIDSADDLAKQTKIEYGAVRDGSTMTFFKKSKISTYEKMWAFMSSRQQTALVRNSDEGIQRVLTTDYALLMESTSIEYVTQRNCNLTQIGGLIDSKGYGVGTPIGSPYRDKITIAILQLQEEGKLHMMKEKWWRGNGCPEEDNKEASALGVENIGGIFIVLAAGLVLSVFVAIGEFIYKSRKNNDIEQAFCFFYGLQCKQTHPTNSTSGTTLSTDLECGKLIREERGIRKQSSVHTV

As to `O=C(Nc1cc(NC(=O)c2ccccc2)c(C(=O)O)cc1C(=O)O)c1ccccc1` [NS3763], the Ki (as a rule, a measure of affinity in units of concentration, obtained from inhibition or displacement) in test [1] was > 10 µM and 1.6 µM; in test [2], over 30 µM. With `CN1CCc2c(-c3ccc(S(=O)(=O)N(C)C)cc3)cc3c(c2C1)NC(=O)/C3=N\OC(CCO)C(=O)O` (stereo not drawn) [SPD 502], the Ki in test [2] was over 10 µM.
